Measured values reported in US20210161997A1, “TREATING DISEASES VIA TARGETED MODULATION OF GENE SIGNALING NETWORKS” (Camp4 Therapeutics Corporation, priority 2018, published 2021).

Legend:
Format in all cases: cell-based
[1] = system: LDLR; assay: RNA-seq of LDLR expression in compound-treated primary human hepatocytes
Protocol: (§1) Human hepatocytes were obtained from two donors from Massachusetts General Hospital, namely MGH54 and MGH63, and one donor from Lonza, namely HUM4111B. Cryopreserved hepatocytes were cultured in plating media for 16 hours, transferred to maintenance media for 4 hours. Cultured on serum-free media for 2 hours, then a compound was added. The hepatocytes were maintained on the serum-free media for 16 hours prior to gene expression analysis. Primary human hepatocytes were stored in the vapor phase of a liquid nitrogen freezer (about −130° C.).
(§2) Human hepatocytes cultured as described above were plated in 24-well format, adding 375,000 cells per well in a volume of 500 ul plating medium. Four hours before treatment, cells were washed with PBS and the medium was changed to either: fresh maintenance medium (complete) or modified maintenance medium.
(§3) Compound stocks were prepared at 1000× final concentration and added in a 2-step dilution to the medium to reduce risk of a compound precipitating out of solution when added to the cells, and to ensure reasonable pipetting volumes. One at a time, each compound was first diluted 10-fold in warm (about 37° C.) modified maintenance medium (initial dilution=ID), mixed by vortexing, and the ID was diluted 100-fold into the cell culture (e.g. 5.1 ul into 1 well of a 24-well plate containing 0.5 mL medium). The plate was mixed by carefully swirling and after all wells were treated and returned to the incubator overnight. If desired, separate plates/wells were treated with vehicle-only controls and/or positive controls. If using multi-well plates, controls were included on each plate. After about 18 hours, cells were harvested for further analysis, e.g., ChIP-seq, RNA-seq, ATAC-seq, etc.
(§4) This protocol is a modified version of the following protocols: MagMAX mirVana Total RNA Isolation Kit User Guide (Applied Biosystems #MAN0011131 Rev B.0), NEBNext Poly(A) mRNA Magnetic Isolation Module (E7490), and NEBNext Ultra Directional RNA Library Prep Kit for Illumina (E7420) (New England Biosystems #E74901).
(§5) The MagMAX mirVana kit instructions (the section titled “Isolate RNA from cells” on pages 14-17) were used for isolation of total RNA from cells in culture. Two hundred μl of Lysis Binding Mix was used per well of the multiwell plate containing adherent cells (usually a 24-well plate).
(§6) For mRNA isolation and library prep, the NEBNext Poly(A) mRNA Magnetic Isolation Module and Directional Prep kit was used. RNA isolated from cells above was quantified, and prepared in […] of each sample in 50 μl of nuclease-free water. This protocol may be run in microfuge tubes or in a 96-well plate.
(§7) All pass filter reads from each sample were mapped against the human genome (assembly GRCh38/GCA_000001405.15 “no alt” analysis set merged with hs38d1/GCA_000786075.2) using two pass mapping via STAR version 2.5.3a (alignment parameters alignIntronMin=20; alignIntronMax=1000000; outFilterMismatchNmax=999; outFilterMismatchNoverLmax=0.05; outFilterType=BySJout; outFilterMultimapNmax=20; alignSJoverhangMin=8; alignSJDBoverhangMin=1; alignMatesGapMax=1000000) (Dobin et al., Bioinformatics (2012) 29(1):15-21). Genomic alignments were converted to transcriptome alignments based on reference transcript annotations from the Human GENCODE Gene Set release 24 (Harrow et al., Genome Res. (2012) 22(9): 1760-1774). Using unique and multimapped transcriptomic alignments, gene-level abundance estimates were computed using RSEM version 1.3.0 (Li and Dewey, BMC Bioinformatics (2011) 12:323) in a strand-aware manner, and including confidence interval sampling calculations, to arrive at posterior mean estimates (PME) of abundances (counts and normalized FPKM—fragments per kilobase of exon per million mapped fragments) from the underlying Bayesian model. Standard QC were applied (read integrity, mapping statistics, library complexity, fragment bias) to remove unsatisfactory samples.

[2] = system: PCSK9; assay: RNA-seq of PCSK9 expression in compound-treated primary human hepatocytes
Protocol: as §1, §2, §3, §4, §5, §6, §7

[3] = system: ANGPTL3; assay: RNA-seq of ANGPTL3 expression in compound-treated primary human hepatocytes; conditions: primary human hepatocytes (Table 12)
Procedure, shortened: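 Cryopreserved primary human hepatocytes from three donors, plated at 375,000 cells/well, switched to complete or modified maintenance medium, then dosed with compound (stocks at 1000× final) for about 18 h. Poly(A) mRNA was sequenced directionally, mapped to GRCh38 with STAR, and gene-level abundance (counts, FPKM) estimated with RSEM against GENCODE 24.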

[4] = system: UGT1A1; assay: RNA-seq of UGT1A1 expression in compound-treated primary human hepatocytes
Procedure, shortened: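 Cryopreserved primary human hepatocytes from three donors were plated in 24-well format, then treated with compound diluted from 1000× stocks in serum-free maintenance medium for about 16–18 h. Poly(A) RNA-seq log2 fold change was computed against vehicle/pan-experiment controls. Significance required FPKM ≥1, log2FC ≥0.5 and q ≤0.05.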

[5] = system: SLC37A4; assay: RNA-seq of SLC37A4 expression in compound-treated primary human hepatocytes
Protocol: as §1, §2, §3, §4, §5, §6, §7

[6] = system: SERPINC1; assay: RNA-seq of SERPINC1 expression in compound-treated primary human hepatocytes; conditions: significance FPKM ≥1, log 2(fold change) ≥0.5, q-value ≤0.05
Protocol: Human hepatocytes were obtained from two donors from Massachusetts General Hospital, namely MGH54 and MGH63, and one donor from Lonza, namely HUM4111B. Cryopreserved hepatocytes were cultured in plating media for 16 hours, transferred to maintenance media for 4 hours. Cultured on serum-free media for 2 hours, then a compound was added. The hepatocytes were maintained on the serum-free media for 16 hours prior to gene expression analysis. Primary human hepatocytes were stored in the vapor phase of a liquid nitrogen freezer (about -130° C.). Human hepatocytes cultured as described above were plated in 24-well format, adding 375,000 cells per well in a volume of 500 ul plating medium. Four hours before treatment, cells were washed with PBS and the medium was changed to either: fresh maintenance medium (complete) or modified maintenance medium. Compound stocks were prepared at 1000× final concentration and added in a 2-step dilution to the medium to reduce risk of a compound precipitating out of solution when added to the cells, and to ensure reasonable pipetting volumes. […] The plate was mixed by carefully swirling and after all wells were treated and returned to the incubator overnight. If desired, separate plates/wells were treated with vehicle-only controls and/or positive controls. If using multi-well plates, controls were included on each plate. After about 18 hours, cells were harvested for further analysis, e.g., ChIP-seq, RNA-seq, ATAC-seq, etc. This protocol is a modified version of the following protocols: MagMAX mirVana Total RNA Isolation Kit User Guide (Applied Biosystems #MAN0011131 Rev B.0), NEBNext Poly(A) mRNA Magnetic Isolation Module ([…]), and NEBNext Ultra Directional RNA Library Prep Kit for Illumina ([…]) (New England Biosystems #E74901). […] Two hundred μl of Lysis Binding Mix was used per well of the multiwell plate containing adherent cells (usually a 24-well plate). For mRNA isolation and library prep, the NEBNext Poly(A) mRNA Magnetic Isolation Module and Directional Prep kit was used. RNA isolated from cells above was quantified, and prepared in […] of each sample in 50 μl of nuclease-free water. This protocol may be run in microfuge tubes or in a 96-well plate. […] Genomic alignments were converted to transcriptome alignments based on reference transcript annotations from the Human GENCODE Gene Set release 24 (Harrow et al., Genome Res. […] Using unique and multimapped transcriptomic alignments, gene-level abundance estimates were computed using RSEM version 1.3.0 (Li and Dewey, BMC Bioinformatics (2011) 12:323) in a strand-aware manner, and including confidence interval sampling calculations, to arrive at posterior mean estimates (PME) of abundances (counts and normalized FPKM-fragments per kilobase of exon per million mapped fragments) from the underlying Bayesian model. Standard QC were applied (read integrity, mapping statistics, library complexity, fragment bias) to remove unsatisfactory samples. Differential gene expression was computed using the negative binomial model implemented by DESeq2 version 1.16.1 (Love et al., Genome Biol. (2014) 15(12):550). […] RNA-seq signals were also normalized by read depth and visualized using the UCSC browser. To identify small molecules that modulate target gene expression, primary human hepatocytes were prepared as a monoculture, and at least one small molecule compound was applied to the cells. RNA-seq was performed to determine the effects of the compounds on the expression of the target genes in hepatocytes. Fold change was calculated by dividing the level of expression in the cell system that had been perturbed by the level of expression in an unperturbed system.

[7] = system: JAG1; assay: RNA-seq of JAG1 expression in compound-treated primary human hepatocytes
Protocol: (§8) Human hepatocytes were obtained from two donors from Massachusetts General Hospital, namely MGH54 and MGH63, and one donor from Lonza, namely HUM4111B. Cryopreserved hepatocytes were cultured in plating media for 16 hours, transferred to maintenance media for 4 hours. Cultured on serum-free media for 2 hours, then a compound was added. The hepatocytes were maintained on the serum-free media for 16 hours prior to gene expression analysis. Primary human hepatocytes were stored in the vapor phase of a liquid nitrogen freezer (about -130° C.). Human hepatocytes cultured as described above were plated in 24-well format, adding 375,000 cells per well in a volume of 500 ul plating medium. Four hours before treatment, cells were washed with PBS and the medium was changed to either: fresh maintenance medium (complete) or modified maintenance medium. Compound stocks were prepared at 1000× final concentration and added in a 2-step dilution to the medium to reduce risk of a compound precipitating out of solution when added to the cells, and to ensure reasonable pipetting volumes. […] The plate was mixed by carefully swirling and after all wells were treated and returned to the incubator overnight. If desired, separate plates/wells were treated with vehicle-only controls and/or positive controls. If using multi-well plates, controls were included on each plate. After about 18 hours, cells were harvested for further analysis, e.g., ChIP-seq, RNA-seq, ATAC-seq, etc. This protocol is a modified version of the following protocols: MagMAX mirVana Total RNA Isolation Kit User Guide (Applied Biosystems #MAN0011131 Rev B.0), NEBNext Poly(A) mRNA Magnetic Isolation Module ([…]), and NEBNext Ultra Directional RNA Library Prep Kit for Illumina ([…]) (New England Biosystems #E74901). […] Two hundred μl of Lysis Binding Mix was used per well of the multiwell plate containing adherent cells (usually a 24-well plate). For mRNA isolation and library prep, the NEBNext Poly(A) mRNA Magnetic Isolation Module and Directional Prep kit was used. RNA isolated from cells above was quantified, and prepared in […] of each sample in 50 μl of nuclease-free water. This protocol may be run in microfuge tubes or in a 96-well plate. […] Genomic alignments were converted to transcriptome alignments based on reference transcript annotations from the Human GENCODE Gene Set release 24 (Harrow et al., Genome Res. […] Standard QC were applied (read integrity, mapping statistics, library complexity, fragment bias) to remove unsatisfactory samples. Differential gene expression was computed using the negative binomial model implemented by DESeq2 version 1.16.1 (Love et al., Genome Biol. (2014) 15(12):550). […] RNA-seq signals were also normalized by read depth and visualized using the UCSC browser. To identify small molecules that modulate target gene expression, primary human hepatocytes were prepared as a monoculture, and at least one small molecule compound was applied to the cells. RNA-seq was performed to determine the effects of the compounds on the expression of the target genes in hepatocytes. Fold change was calculated by dividing the level of expression in the cell system that had been perturbed by the level of expression in an unperturbed system.

[8] = system: NOTCH2; assay: RNA-seq of NOTCH2 expression in compound-treated primary human hepatocytes; conditions: primary human hepatocytes
Protocol: as §8

Row | SMILES | LDLR Fold Change (Log2) [1] [Log2] | PCSK9 Fold Change (Log2) [2] [Log2] | ANGPTL3 Fold Change (Log2) [3] [Log2] | UGT1A1 Fold Change (Log2) [4] [Log2] | SLC37A4 Fold Change (Log2) [5] [Log2] | SERPINC1 Fold Change (Log2) [6] [Log2] | JAG1 Fold Change (Log2) ([7]; primary human hepatocytes) | Significant modulation of JAG1 (in words) ([7]; summary of Table 6) | NOTCH2 Fold Change (Log2) [8] [Log2]
1 | C=CC(=O)Nc1cccc(Nc2nc(Nc3ccc(N4CCN(C(C)=O)CC4)cc3OC)ncc2C(F)(F)F)c1 [CO-1686 (Rociletinib), Rociletinib] | 0.51 | 0 | −0.67 | – | – | – | – | – | –
2 | COCCOc1ccc2c(c1)ncn2-c1ccc2cccc(N3CCC(N)CC3)c2n1 [CP-673451] | – | – | – | 1.82 | 1.17 | 2.53 | – | – | –
3 | CS[C@H]1SC[C@H]2C(=O)N(C)[C@@H](C(C)C)C(=O)OC[C@@H](NC(=O)c3cnc4ccccc4n3)C(=O)N[C@@H](C)C(=O)N(C)[C@@H]1C(=O)N(C)[C@@H](C(C)C)C(=O)OC[C@@H](NC(=O)c1cnc3ccccc3n1)C(=O)N[C@@H](C)C(=O)N2C [Echinomycin] | – | – | – | 1.10 | 1.59 | 2.29 | – | – | –
4 | COc1cccc2c1C(=O)c1c(O)c3c(c(O)c1C2=O)C[C@@](O)(/C(CO)=N/NC(=O)CCCCCN1C(=O)C=CC1=O)C[C@@H]3O[C@H]1C[C@H](N)[C@H](O)[C@H](C)O1 [INNO-206 (aldoxorubicin), aldoxorubicin] | – | – | – | – | – | 1.00 | 0.84 | significantly modulate only JAG1 | 0
5 | O=c1cc(N2CCOCC2)oc2c(-c3ccccc3)cccc12 [LY294002] | 0.48 | −0.51 | 0 | 1.36 | – | – | – | – | –
6 | NS(=O)(=O)C#Cc1ccccc1 [Pifithrin-u, Pifithrin-μ] | 0.60 | −0.54 | −0.46 | – | – | 0.79 | – | – | –
7 | COCCOc1ccc(N2CCN(CCn3ncc4c3nc(N)n3nc(-c5ccco5)nc43)CC2)cc1 [Preladenant] | 1.07 | 0 | −0.73 | – | – | – | – | – | –
8 | CN1CCC(CNc2ccc3ncc(-c4cccc(OC(F)(F)F)c4)n3n2)CC1 [SGI-1776] | 0.48 | 0 | −0.52 | – | – | – | – | – | –
9 | CNC(=O)Nc1ccc(-c2nc(N3CC4CCC(C3)O4)c3cnn(C4CCC5(CC4)OCCO5)c3n2)cc1 [WYE-125132 (WYE-132)] | 1.46 | −0.91 | −0.42 | – | – | – | – | – | –
